This test relates to BN472 rat mammary carcinoma. Kind of test: Spontaneous metastases model, BN472 rat mammary tumors transplanted orthotopically. Format: in vivo. The conditions noted are these: 4 weeks, vehicle control about 230. How it is done:
Tumor fragments of ca. 25 mm^3 are transplanted under the mammary fat pad of female Brown-Norwegian (BN) rats. A compound of formula I is suspended in 1% carboxymethyl cellulose (CMC) in sterile water. The formulations are administered orally at doses of either 30 mg/kg once per day or 15 mg/kg twice per day. Animals in the tumor-bearing control group and the non-tumor-bearing control group (healthy rats) receive vehicle only. Treatment starts after randomization and continues for 4 weeks. Lung metastases are determined after four weeks of treatment by counting the number of lesions visible on the surface of the lungs after fixation in Bouin's fixative. In this model the compounds of formula I at a dose of either 30 mg/kg once per day or 15 mg/kg twice per day produce reductions in the incidence and/or extent of metastases in lungs and regional lymph nodes. The reduction in the median number of lung metastases or weight of regional lymph nodes is between approximately 25% and 70%. For Example, for the compound of Example 3 the median number of lung foci is about 105 for both dosages compared to a median number of about 230 lung foci in the vehicle control group. Based on the increase in body weight and general health, the compounds appear to be well tolerated. […]

The structures appear in SMILES notation.

As to `O=C(CN(Cc1ccc(-n2nccn2)cc1)S(=O)(=O)c1ccc(OCC2CC2)cc1)NO` [Example 3, [(4-Cyclopropylmethoxy-benzenesulfonyl)-(4-[1,2,3]triazol-2-yl-benzyl)amino]-N-hydroxy-acetamide], the “median number of lung foci” value (15 mg/kg twice per day orally) is given as “about 105” and the “median number of lung foci” value (30 mg/kg once per day orally) is given as “about 105”.

These data come from US7659293B2, “α-Amino-N-hydroxy-acetamide derivatives” (Novartis AG, priority 2001, dated 2010).
